Key:
[1] = biological target: T1, human thyroid hormone receptor (Homo sapiens, UniProt P10828); assay: Receptor binding to in-vitro translated human thyroid hormone receptor (FIGS. 8-13)
T1 sequence (P10828 1-461): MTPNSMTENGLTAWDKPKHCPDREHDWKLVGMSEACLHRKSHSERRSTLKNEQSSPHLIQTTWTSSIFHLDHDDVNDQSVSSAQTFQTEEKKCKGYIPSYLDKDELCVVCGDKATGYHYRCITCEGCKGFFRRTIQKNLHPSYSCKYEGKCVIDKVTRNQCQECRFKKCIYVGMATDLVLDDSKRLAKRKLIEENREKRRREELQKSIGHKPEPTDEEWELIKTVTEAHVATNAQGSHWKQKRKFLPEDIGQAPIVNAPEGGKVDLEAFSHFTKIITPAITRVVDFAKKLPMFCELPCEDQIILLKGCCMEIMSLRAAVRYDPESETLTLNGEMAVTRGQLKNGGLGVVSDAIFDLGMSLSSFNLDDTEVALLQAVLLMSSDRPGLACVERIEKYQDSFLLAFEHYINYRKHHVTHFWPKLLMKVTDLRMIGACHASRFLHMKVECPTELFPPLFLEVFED
Text: In FIGS. 8-13, human thyroid hormone receptor was produced by in-vitro translation of RNA coding for the receptor protein. The RNA was synthesized enzymatically using a human thyroid receptor DNA clone as a template.

[2] = tested on: thyroid hormone receptor in nuclei of intact GC cells; format: cell-based, rat; settings: for competition with labeled T3, in words: intact cells
Procedure: Cell Culture utilized GC cells obtained from the cellular culture facility at UCSF. GC cells were plated at 2-4×10^6 cells/100 mm tissue culture disk obtained from Falcone, and were maintained at 37° C., in the mixture of O2 /CO2 95/5%, in DMEM 21 medium containing 10% of fetal calf serum, obtained from J. R. Scientific, Woodland, Calif., to which 100/ml of penicillin and streptomycin, and 2 mM of glutamine were added.
After 18 hours, cells were rinsed with 1 ml of PBS for 10 minutes at 37° C. and incubated for four hours in DMEM containing 10% serum substitute solution and 2% stripped calf serum. […] Incubations were carried out at 37° C. on a Tilt table.

[3] = nuclear but not mitochondrial or cytosol fractions; cited from earlier work
[4] = cited from earlier work
thyroid hormone receptor = settings: J. Clin. Invest., 83 (1989); cited from earlier work
rGH mRNA in GC cells = settings: 300 pM T3; Northern analysis; FIG. 7a
Procedure: GC cells were plated at 2-4×10^6 cells/100 mm tissue culture disk obtained from Falcone, and were maintained at 37° C., in the mixture of O2 /CO2 95/5%, in DMEM 21 medium containing 10% of fetal calf serum, obtained from J. R. Scientific, Woodland, Calif., to which 100/ml of penicillin and streptomycin, and 2 mM of glutamine were added.
Preparation and Quantitation of Cytoplasmic RNA was done by plating and attachment for 12-18 hours of GC cells, followed by deinducing 4 days in 20 ml of DMEM containing 10% serum substitute solution obtained from Cell Culture Facility, UCSF, and 2% of stripped serum, prepared above. Media were replaced after the second day of deinduction.
The amount of rGH message present in aliquots of GC cell cytoplasm was determined by Northern hybridization using glyoxylated RNA (Ibid., p. 380). Equal amounts of cytoplasmic RNA were examined per lane (15 or 20 ug). HeLa cell RNA was also tested as a control for specificity and background binding. […] Some blots were also probed with a 1.6 kb Kho I fragment of the pHF1 human gamma-actin gene according to Mol. Cel. […] Hybridizations were carried out for 18-48 hours at 42° C. Blots were autoradiographed with Kodak XAR-2 film using Cronex Lightning plus intensifying screens.
After hybridization, blots were autoradiographed and analyzed using Zenith scanning densitometer.

[5] = cases of clinical hypothyroidism

## CCN(CC)CCOc1c(I)cc(C(C)=O)cc1I
[1]
  binding to T3 (thyroid hormone) receptor, in words: zero binding

## CCN(CC)CCOc1c(I)cc(C(=O)c2c(C)oc3ccccc23)cc1I
[1]
  binding to T3 (thyroid hormone) receptor, in words: good binding to T3 receptor

## CCCCc1oc2ccccc2c1C(O)c1cc(I)c(OCCN(CC)CC)c(I)c1 (stereo not drawn)
[1]
  binding to T3 (thyroid hormone) receptor, in words: binds weakly to the T3 receptor

## CCCCNC(Cc1cc(I)c(Oc2ccc(O)c(I)c2)c(I)c1)C(=O)O (stereo not drawn)
[1]
  binding to T3 (thyroid hormone) receptor, in words: binds to the T3 receptor

## COc1ccc(C(=O)n2cc(CNC(Cc3cc(I)c(Oc4ccc(O)c(I)c4)c(I)c3)C(=O)O)c3cc(OC)ccc32)cc1 (stereo not drawn)
[1]
  binding to T3 (thyroid hormone) receptor, in words: binds to the T3 receptors

## N[C@@H](Cc1cc(I)c(Oc2ccc(O)c(I)c2)c(I)c1)C(=O)O [T3, triiodothyronine]
[2]
  competition with labeled T3, in words: competed with labeled T3 for binding to the thyroid hormone receptors
[3]
  binding to cellular fractions, in words: high-affinity, low capacity binding sites

## N[C@@H](Cc1cc(I)c(Oc2cc(I)c(O)c(I)c2)c(I)c1)C(=O)O [T4, thyroxine]
[3]
  binding to cellular fractions, in words: high-affinity, low capacity binding sites

## N[C@@H](Cc1cc(I)c(Oc2ccc(O)c(I)c2)c(I)c1)C(=O)O [^125 I-T3]
[2]; intact GC cells, normalized to DNA content
  maximum binding capacity: about 85 fmol/100 ug DNA

## CCCCc1oc2ccccc2c1C(=O)c1cc(I)c(OCCN(CC)CC)c(I)c1 [amiodarone, 2-butyl-3-[3,5-diiodo-4-(β-diethylaminoethoxy)-benzoyl]benzofuran]
[2]
  competition with labeled T3, in words: competed with labeled T3 for binding to the thyroid hormone receptors
[4]; [5]
  T4 and T3 serum levels in clinical hypothyroidism: normal or slightly decreased
  pituitary thyroid receptor hormone binding: decreased pituitary thyroid receptor hormone binding
  thyroid-stimulating hormone (TSH) levels: mildly elevated
[4]; chronic administration
  thyroid side effects: both hyper- and hypothyroid-like side effects
[4]; in vivo
  effect on peripheral T4 monodeiodination: inhibition of peripheral T4 monodeiodination
  serum T4 and T3 levels: changes in the concentrations of serum thyroxine (T4) and triiodothyronine (T3) levels
Thyroid hormone receptor
  thyroid hormone antagonism, in words: behaves as a competitive inhibitor of triiodothyronine (T3)
rGH mRNA in GC cells
  effect on induction of rGH mRNA: blocked the induction of rGH mRNA

Source: patent US5500807A, “Selection method for pharmacologically active compounds” (The Regents of the University of California, priority 1992, dated 1996)
